Data set [1] concerns the target T1, SERCA2a (Mus musculus, UniProt O55143).
T1 construct: host or cells: HL-1 cardiac cells
The data set is described as follows: NADH-coupled ATPase assay on microsomal membrane vesicles from mouse heart ventricles (mouse SR). The data set is classed as biochemical. Details: key to SERCA2a mouse SR effect class: +++: a strong effect, comparable to or greater than that of a known compounds at a given concentration (25 µM in RyR2 R-CEPIA1er assay, 10 µM in caffeine assay and on microsomal membrane vesicles); ++: moderate effect; +: observable effect; -: no effect. Particulars: for SERCA2a mouse SR effect class: 10 µM on microsomal membrane vesicles. On the procedure: All animal procedures were performed in accordance with Directive 2010/63/EU of the European Parliament and the Council on the protection of animals used in research, as well as Animal Welfare Law of the Federal Republic of Germany (Tierschutzgesetz der Bundesrepublik Deutschland, TierSchG). […] All mice were housed with a 12 hours light/dark cycle with free access to food and water. Adult C57BL/6N mice of both genders were sedated with isoflurane in a sealed container and quickly euthanized by cervical dislocation. Heart ventricles were taken out instantly, washed with ice cold PBS plus complete, cut into smaller pieces and snap frozen in liquid nitrogen straight away.
Thawed on ice lysis buffer (10mM EDTA, 10mM HEPES, cOmplete, pH 7.4) was added and the ventricles were homogenized with a Qiagen cellruptor for 20 s. On ice an equal volume of restoration buffer (500 mM sucrose, 10 mM HEPES, cOmplete, pH7.2) was added and briefly mixed. The homogenate was centrifuged at 10000 × g for 20 min at 4° C. The supernatant was collected and centrifuged again for another hour (100000 × g at 4°C). Then the pellet was carefully resuspended in resuspension buffer (250 mM sucrose, 10 mM HEPES, cOmplete, pH 7.2) on ice by pipetting the solution up and down until fully dissolved. The obtained solution was diluted to a protein concentration of 5 µg/µl with the resuspension buffer and the aliquots were snap frozen in liquid nitrogen and then stored at -80 °C until usage.
To determine whether new compounds could increase the SERCA2a activity, HEK-293 microsomes (40 - 150 µg of total protein) or mouse ventricular microsomes (1 - 20 µg of total protein) were diluted in 100 µl of the assay buffer used for measurement of SERCA activity (described below) and incubated at room temperature for 5 minutes prior to the experiments. The measurements of SERCA2a activity were made at 28 °C by using a NADH -coupled ATPase assay. Briefly, the assay buffer contained 60 mM MOPS, 120 mM KCI, 6 mM MgCl2, 1 mM EGTA, 5 mM NaN3, 0.5 mM phosphoenolpyruvate and 1.5 mM CaCl2, pH 7.0. Before the reaction was started by the injection of […] ATP (resulting in 2 mM final concentration in the well), 5 units/mL of both lactate dehydrogenase and pyruvate kinase, 0.5 mM NADH, and 1 µM Ca^2+ ionophore A-23187 (Sigma, C-7522) were added to the diluted sample with or without the tested compound. The 1.5 mM Ca/EGTA buffer has a free Ca^2+ concentration of about 200 µM. The NADH fluorescence decrease was recorded each 2 s for 10 min course on a multiwell plate reader TECAN Spark 20M in 96-well glass bottom plates (MatTek Corporation; Cat. No. PBK96G-1.5-5-F). Fluorescence was evoked by 380 nm excitation wavelength and collected in a bottom-read mode at 425 nm. Exposure - 30 flashes, excitation bandwidth - 10 nm, emission bandwidth - 10 nm. ATP was injected at 30 s. […] The data were analyzed with computer software GraphPad Prism version 8.3.1 (GraphPad Software, Inc.). The difference in signal decrease with and without microsomes was taken as an indicator for the additional ATPase activity performed by SERCA2a. The obtained values for maximal SERCA2a activity were normalized for total protein concentration. Maximal SERCA2a activity values are reported as percentages of control (0.1% DMSO) values. Microsomal samples that were kept on ice until usage and set to 100%.
In an NADH assay, the change in NADH coenzyme fluorescence reflects the level of the consumption of ATP, which can be taken as an indicator of SERCA2 activity [G. B. Warren, P. A. Toon, N. J. Birdsall, A. G. Lee, J. C. Metcalfe, Reconstitution of a calcium pump using defined membrane components. Proc. Natl. Acad. Sci. U.S.A. 1974, 71, 622 - 626]. ATP hydrolysis by SERCA2 is required to pump calcium ions into the SER. A higher rate of ATP hydrolysis corresponds to enhanced SERCA2 ATPase activity that leads to a greater pumping of calcium ions into the SR. […]

For data set [2], the system named is HL-1 cardiac cells. The data set is described as follows: CytoTox-Glo cytotoxicity assay (cell viability). Particulars: CytoTox-Glo assay in 100 µM solutions after 24 h incubation. It is filed as cell-based. On the procedure:
Cell viability was assessed using CytoTox-Glo™ Cytotoxicity Assay according to the manufacturing procedure (Promega GmbH). Briefly, HL-1 cardiac cells were cultivated for 24 h in black-walled, clear-bottom 96-well micro-plates (Corning) covered with fibronectin in DMEM, containing different concentrations of the tested compound (10,000 cells/well). Luminescence of a luminogenic peptide substrate was measured before and after addition of the lysis reagent (digitonin). The viable cell contribution was determined by a subtractive method. 0.1% DMSO treated cell were taken as a control.
The membrane permeability of the derivatives was determined using cell-free transport models (PermeaPad®, innoME GmbH), and permeability rates (Pe), which are a measure of how fast a compound can cross a membrane, were established (Table 1).

Data on eight compounds can be found in EP4548971A1, “1,4-BENZOTHIAZEPINES AND RELATED COMPOUNDS WITH CYCLOPROPANOL GROUPS AS MULTI-TARGETED DRUGS” (Georg-August-Universität Göttingen Stiftung Öffentlichen …, priority 2023, dated 2025).

Structures are written as SMILES.

T1 sequence (O55143 1-998 isoform O55143-2): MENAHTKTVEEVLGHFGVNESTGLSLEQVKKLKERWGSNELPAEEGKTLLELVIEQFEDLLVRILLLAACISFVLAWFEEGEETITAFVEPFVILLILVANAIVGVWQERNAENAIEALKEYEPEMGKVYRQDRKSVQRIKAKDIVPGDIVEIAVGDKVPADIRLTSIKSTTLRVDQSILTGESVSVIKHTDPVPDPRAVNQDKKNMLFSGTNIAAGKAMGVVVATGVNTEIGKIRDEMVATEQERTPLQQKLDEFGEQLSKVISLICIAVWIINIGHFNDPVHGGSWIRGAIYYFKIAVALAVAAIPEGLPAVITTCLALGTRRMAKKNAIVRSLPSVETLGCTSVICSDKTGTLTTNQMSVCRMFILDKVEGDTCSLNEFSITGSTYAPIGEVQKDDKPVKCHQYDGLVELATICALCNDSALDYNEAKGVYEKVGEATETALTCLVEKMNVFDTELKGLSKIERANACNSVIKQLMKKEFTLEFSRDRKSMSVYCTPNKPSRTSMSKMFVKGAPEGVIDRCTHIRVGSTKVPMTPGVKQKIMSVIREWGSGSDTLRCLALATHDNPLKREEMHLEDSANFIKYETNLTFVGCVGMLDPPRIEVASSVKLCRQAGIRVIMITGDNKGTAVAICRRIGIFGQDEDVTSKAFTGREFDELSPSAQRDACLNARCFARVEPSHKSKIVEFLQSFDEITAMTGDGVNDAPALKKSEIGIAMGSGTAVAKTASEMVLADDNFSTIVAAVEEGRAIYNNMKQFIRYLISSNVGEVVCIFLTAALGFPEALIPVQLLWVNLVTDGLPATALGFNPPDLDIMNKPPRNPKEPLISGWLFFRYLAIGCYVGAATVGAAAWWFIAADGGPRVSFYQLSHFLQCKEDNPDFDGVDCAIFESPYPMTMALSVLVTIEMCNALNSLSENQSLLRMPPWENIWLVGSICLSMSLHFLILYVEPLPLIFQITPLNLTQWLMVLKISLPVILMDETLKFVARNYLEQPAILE

For the compound `COc1ccc2c(c1)CN(CCCCC1(O)CC1)CCS2` [Compound 13d, 1-(4-(7-methoxy-2,3-dihydrobenzo[1,4-f]thiazepin-4(5H)-yl)butyl)cyclopropan-1-ol], the “SERCA2a mouse SR effect class” value in data set [1] was “++”. In data set [1] (cardiac SER vesicles from mouse heart, 10 µM (3 µM for 14b), vs. 0.1 v/v% DMSO), the “effect on ATPase activity, in words” value is recorded as “moderate”. Also, in data set [2], the Viability came out at 95%.
As for `COc1ccc(SCCCN(CCCCC2(O)CC2)CCCCC2(O)CC2)cc1` [Compound 14c, 1,1'-(((3-((4-Methoxyphenyl)thio)propyl)azanediyl)bis(butane-4,1-diyl))bis(cyclopropan-1-ol)], in data set [1], the “SERCA2a mouse SR effect class” value is “+”. The same compound registered a Viability in data set [2] of 90%.
The like results for `COc1ccc2c(c1)CN(Cc1ccc(C(=O)O)cc1)CCS2` [ARM210, reference compound] were, in that order, “++” and 90%.
For `COc1ccc(OCCCNCCCCC2(O)CC2)cc1` [Compound 13b, 1-(4-((3-(4-methoxyphenoxy)propyl)amino)butyl)cyclopropan-1-ol], the “SERCA2a mouse SR effect class” value in data set [1] is listed as “+”. Also, in data set [2], the Viability was 100%.
Take `COc1ccc2c(c1)CN(C(=O)C(=O)O)CCS2` [Compound S36, reference compound]: the Viability in data set [2] was 94%.
For the compound `COc1ccc2c(c1)CN(CCCCN(CCCCC1(O)CC1)CCCCC1(O)CC1)CCS2` [Compound 14a, 1,1'-(((4-(7-Methoxy-2,3-dihydrobenzo[1,4-f]thiazepin-4(5H)-yl)butyl)azanediyl)bis(butane-4,1-diyl))bis(cyclopropan-1-ol)], the “SERCA2a mouse SR effect class” value in data set [1] was “+++”. The same compound displayed an EC50 in data set [1] (ATPase activity, range after the semicolon is not explained) of 383 nM. For the same compound, the Viability in data set [2] turned out to be 80%.
Regarding `COc1ccc2c(c1)CN(CCCCNCCCCC1(O)CC1)CCS2` [Compound 13a, 1-(4-((4-(7-Methoxy-2,3-dihydrobenzo[1,4-f]-thiazepin-4(5H)-yl)butyl)amino)butyl)cyclopropan-1-ol], the “SERCA2a mouse SR effect class” value in data set [1] was “+”. The compound also displayed a Viability in data set [2] of 84%.
On to `COc1ccc(SCCCNCCCCC2(O)CC2)cc1` [Compound 13c, 1-(4-((3-((4-Methoxyphenyl)thio)propyl)amino)butyl)cyclopropan-1-ol], for which the “SERCA2a mouse SR effect class” value in data set [1] was “+++”. Moreover, the Viability in data set [2] was 73%.
